Reference: patent US11730712B2, “Functionalized long-chain hydrocarbon mono- and di-carboxylic acids and derivatives thereof, and their use for the prevention or treatment of disease” (ESPERVITA THERAPEUTICS, INC., priority 2021, dated 2023)

Assays:
[1] = test system: hepatic cell death pathways (pyroptosis, necroptosis, apoptosis); experiment: Hepatic cell death pathways by Western blot (gasdermin D, cleaved caspase 3, cleaved RIP3); assay type: in vivo, mouse; conditions: liver samples from HFCC/CDX mice, 100 mg/kg QD oral, 2 weeks
Procedure: Compound I-1 and Compound I-32 were tested for their ability to alter hepatic cell death pathways (i.e., pyroptosis, necroptosis, and apoptosis) using liver samples from Example 7. Detection was performed on liver sections obtained from the experiment described in Example 7. Paraffin sections were deparaffinized. Western blot analysis was performed by the We-Met platform. Toulouse. France, France. Commercial primary antibodies for Gasdermin D (reference ab209845; Abcam, Cambridge, UK), cleaved caspase 3 (reference 9664, Cell Signaling Technology. Danvers, Mass.), cleaved receptor interacting protein 3 (RIP3; reference ab56164; Abcam) and actin (reference 4970; Cell Signaling Technology) for control, were used on the WES automated western blot system (Proteinsimple, San Jose, Calif.). Data are presented as mean±SEM, with n=6-10 mice per experimental group, as indicated in the legends. Two-way analysis of variance with Bonferroni post-test. Mann-Whitney U-test, or unpaired two-tailed Student's t-test were used for statistical analysis using GraphPad Prism software (GraphPad Software, La Jolla, Calif.). A P<0.05 was considered significant.

[2] = test system: human hematopoietic stem and progenitor cells (CD45+CD34+); experiment: Megakaryopoiesis and platelet production in cultured hematopoietic stem and progenitor cells; assay type: cell-based; conditions: 30 μM, added day 6
Procedure: Materials and Methods. Hematopoietic stem and progenitor cells, identified as viable CD45+CD34+ cells, were isolated from peripheral blood of healthy donors by a method known in the art (see Ivetic N. Nazi I, Karim N et al. Producing megakaryocytes from a human peripheral blood source. Transfusion 2016; 56:1066-74). These isolated cells were then analyzed for purity before being expanded for four days using a commercial supplement to increase their cell population. After expansion, the cells were analyzed for purity, washed, and stimulated with a saturating concentration of thrombopoietin (20 ng/mL) and stem cell factor (50 ng/mL) to begin megakaryopoiesis. Compound I-32 and Compound I-1 were added at this timepoint at a concentration of 30 μM. The cells were then cultured for 8 days to develop into megakaryocytes and analyzed via flow cytometry to assess their number, maturity, and platelet count as defined by CD41a, CD42b and Calcein-AM expression. In addition, Compound I-32 and Compound I-1 were added to cells during the later stages of development (day 6) to assess their impact on maturation. ABT-737 ([…]) was used as a positive control and a DMSO vehicle control (<0.15% v/v) was the negative control. […]
Statistical analysis. Statistical analyses were carried out by comparing effects on measured parameters in comparison to vehicle control. […]

[3] = test system: Hep3B human hepatocarcinoma cells; experiment: Colony formation assay (clonogenic survival, 7 days); assay type: cell-based; conditions: 168 h, read-out: Hep3B (IC50), anti-clonogenic activity
Procedure: (§1) Colony formation assay. Hep3B and Hepa1-6 cells were seeded in 12-well plates at a cell density of 1000 and 500 cells/well, respectively. On day 2, media in each well was aspirated and replaced with 1000 μl of fresh complete media and cells were treated with or without the respective drugs in an increasing concentration followed by the incubation of the cells for 7 days in an incubator.
(§2) On day 9, the media in each well was aspirated and cells were fixed with 10% formalin (500 μl) for 10 minutes at room temperature. Formalin was aspirated and the plates were washed with 1×PBS and stained with crystal violet for another 10 minutes. After 10 minutes of staining, crystal violet was […] the cells, rinsed with tap water for three times and the plates were dried overnight. Next day, colonies (>50 cells) were counted and analyzed.
(§3) Statistical tests. Results were indicated as mean±standard deviation (SD). All line graphs were prepared using Graph Pad Prism 8 software. Proliferation and clonogenics IC50 values were calculated using a non-linear regression model in Graph pad Prism 8.

[4] = test system: Hepa1-6 murine hepatoma cells; experiment: as above; assay type: cell-based; conditions: Mus musculus, Hepa1-6, 168 h, read-out: Hepa1-6 (IC50), anti-clonogenic activity
Procedure: as §1, §2, §3

C57BL6/J mice = experiment: Indirect calorimetry (CLAMS) in fructose-fed C57BL6 mice; assay type: in vivo, mouse; conditions: 100 mg/kg oral gavage, refed mice with RER >1
Procedure: Materials and Methods. All experiments were carried out using the methods approved by the Animal Research Ethics Board at McMaster University, Canada (Steinberg Laboratory Animal Utilization Protocol #16-12-42). 8-Week-old male C57BL6/J mice were ordered from Jackson Laboratory, Bar Harbor, Me. and housed at the McMaster University Central Animal Facility. Animals were housed in the ventilated cages racks system and provided with ad libitum access to normal chow diet (Teklad 8640 22/5 rodent diet, procured from Envigo, Mississauga ON) and water supplemented with fructose (30% weight/volume, made fresh weekly) for at least 2-weeks before testing commenced. […] Data were analyzed using one-way analyses of variance followed by a Tukey's multiple comparisons post hoc test where appropriate. […]
Experimental and Results. Respiratory Exchange Ratio (RER) and related metabolic parameters were measured using the Comprehensive Lab Animal Monitoring System (CLAMS, Columbus Instruments, Columbus, Ohio). […] RER was monitored and those animals with RER values >1 were administered either vehicle (1.5% Carboxymethyl cellulose and 0.2% Tween 20) alone or vehicle containing Compound I-1 or Compound I-32 at a dose of 100 mg/kg via oral gavage. Animals remained in the metabolic cages and RER, activity level, locomotor activity, and food intake were monitored for 24 hours. […]

SMILES	hepatic cell death pathways (pyroptosis, apoptosis, necroptosis) by Western blot [1]	inhibition of megakaryopoiesis/platelet parameters after addition on day 6 of culture [2]	IC50 [3]	IC50 [4]	Respiratory Exchange Ratio (RER) compared to vehicle treated group (C57BL6/J mice)
CC(C)(CCCCc1ccc(CCCCC(C)(C)C(=O)O)cc1)C(=O)O [Compound I-1, 6-[4-(5-carboxy-5-methylhexyl)-phenyl]-2,2-dimethylhexanoic acid]	significantly repressed pyroptosis and apoptosis cell death pathways with a trend towards necroptosis	no inhibition detected	50.7 µM	67.6 µM	significant reduction in the RER
CC(C)(CCCCc1cccc(CCCCC(C)(C)C(=O)O)c1)C(=O)O [Compound I-32, 6-[3-(5-carboxy-5-methylhexyl)-phenyl]-2,2-dimethylhexanoic acid]	significantly repressed pyroptosis and apoptosis cell death pathways with a trend towards necroptosis	no inhibition detected	40.8 µM	58.9 µM	significant reduction in the RER
